What was measured:
male Slc:ddY mice = experiment: Test of anti-fatigue effect and physical endurance-enhancing effect (forced swimming with weight); format: in vivo, mouse; conditions: weight 8.5% of body weight
Text: The following method can determine whether the functional food, or anti-fatigue agent and/or physical endurance enhancer, which contains the composition of the present invention, has an anti-fatigue effect or not and physical endurance-enhancing effect or not. That is, the effect of the present invention can be determined as follows: after preliminarily feeding, attaching a weight, which is equivalent to 8.5% of the body weight of each mouse, to each mouse in a group subjected to forced oral administration with an anti-fatigue agent containing the composition of the present invention (administered group) and to each mouse in a group administered with no agent (non-administration group) three weeks after administration; forcing the mice to swim; measuring a time until the head (nose) of each mouse completely sinks in water for 7 seconds due to distress; and comparing the results between the administered group and the non-administration group.
Six-week-old male Slc:ddY mice (Charles river laboratories Japan, Inc.) were preliminarily fed for 7 days and divided into four groups each including 10 mice.
The groups include: the group administered with water (control); the group administered with oxidized coenzyme Q10 at 50 mg/kg/day (Comparative Example 1, group administered with only CoQ10); the group administered with phosphatidylinositol at 100 mg/kg/day (Comparative Example 2, group administered with only phosphatidylinositol); and the group administered with oxidized coenzyme Q10 at 50 mg/kg/day and phosphatidylinositol at 100 mg/kg/day at the same time (Test Example, group administered with CoQ10+phosphatidylinositol), and forced oral administration was performed under the above-mentioned administration conditions five days a week. Three weeks after the administration, a weight was attached to each mouse (the weight is 8.5% of the body weight of the mouse), and the mouse was forced to swim. Then, a time until the head (nose) of the mouse completely sank for 7 seconds due to distress was measured. Note that, the oxidized coenzyme Q10 and phosphatidylinositol in Test Example were simultaneously administered.

[1] = Coenzyme Q10 concentration in blood after forced oral administration (HPLC of plasma); format: in vivo, rat; conditions: rats; for Average value of total CoQ10 concentration in blood: group = 1 week pre-administration
Protocol: Seven-week-old male Slc:SD rats were preliminarily fed for 7 days, and forced oral administration (repeated oral administration) was performed for 4 rats with phosphatidylinositol at 100 mg/kg/day for 1 week. Then, forced oral administration was performed with phosphatidylinositol at 100 mg/kg/day and oxidized coenzyme Q10 at 100 mg/kg/day at the same time (PI-administered group). 0, 2, 4, and 6 hours after the forced oral administration with both phosphatidylinositol and coenzyme Q10, the whole blood was collected from the postcaval vein using heparinized injection needles and syringes under diethyl ether anesthesia. Collected blood was immediately centrifuged (4° C., 3,000 rpm, 10 minutes) to separate plasma. The separated plasma samples were used for an analysis of coenzyme Q10 by HPLC. As comparative examples, the above-mentioned procedures were performed for the group which was subjected to forced oral administration (repeated oral administration) with soybean lecithin at 500 mg/kg/day (100 mg/kg/day in terms of phosphatidylinositol) instead of phosphatidylinositol for 1 week and then to forced oral administration with both phosphatidylinositol at 100 mg/kg/day and oxidized coenzyme Q10 at 100 mg/kg/day at the same time (soybean lecithin-administered group), and the group which was subjected to forced oral administration with both phosphatidylinositol at 100 mg/kg/day and oxidized coenzyme Q10 at 100 mg/kg/day simultaneously without preliminary administration of phosphatidylinositol (PI non-administration group).

[2] = Week 3, forced oral administration five days a week

Row | Compound | Swimming time (average) (male Slc:ddY mice; Week 0, 10 mice per group) [s] | Swimming time (average) (male Slc:ddY mice; [2]) [s] | Average value of total CoQ10 concentration in blood ([1]; 0 hr after oral PI 100 mg/kg + oxidized CoQ10 100 mg/kg) [nM] | Average value of total CoQ10 concentration in blood ([1]; 2 hr after oral PI 100 mg/kg + oxidized CoQ10 100 mg/kg) | Average value of total CoQ10 concentration in blood ([1]; 4 hr after oral PI 100 mg/kg + oxidized CoQ10 100 mg/kg) | Average value of total CoQ10 concentration in blood ([1]; 6 hr after oral PI 100 mg/kg + oxidized CoQ10 100 mg/kg) [nM] | coenzyme Q10 concentrations in blood compared with the PI non-administration group ([1]; 1 week pre-administration)
1 | COC1=C(OC)C(=O)C(C/C=C(\C)CC/C=C(\C)CC/C=C(\C)CC/C=C(\C)CC/C=C(\C)CC/C=C(\C)CC/C=C(\C)CC/C=C(\C)CC/C=C(\C)CCC=C(C)C)=C(C)C1=O [CoQ10, oxidized coenzyme Q10, reference compound] | 214 | 358 | – | – | – | – | –
2 | phosphatidylinositol | 212 | 333 | 70 | 1,983 nM | 1,927 nM | 686 | higher

Source: patent US20100061969A1, “DIETARY SUPPLEMENT, ANTI-FATIGUE AGENT OR PHYSICAL ENDURANCE ENHANCER, FUNCTIONAL FOOD, OR COSMETIC” (ASAHI KASEI PHARMA CORPORATION, priority 2006, published 2010)
